The values below come from US10392599B2, “Method for non-freeze low-temperature preservation of mammalian embryo or fertilized egg” (NATIONAL FEDERATION OF AGRICULTURAL COOPERATIVE ASSOCIATIONS, priority 2012, dated 2019).

A short description of data set [1]: pH of the preservative solution upon completion of preservation. The format is physicochemical. The following applies: for pH of the medium upon completion of the refrigerated storage for 7 days: Good's buffer 25 mM, FBS 50% (v/v), medium 199; for pH upon completion of preservation: medium 199, 7 days. The procedure: Preservation of bovine embryos was carried out as follows (FIG. 1). First, a preservative solution alone was sucked into a straw having a capacity of 0.25 ml, and, after introduction of an air layer, a bovine embryo contained in the preservative solution was sucked. Thereafter, an air layer was introduced, and the preservative solution alone was sucked again. The straw was then sealed. Subsequently, the straw containing the sucked bovine embryo was immersed in water contained in a plastic container (plastic tube) which had been preliminarily cooled to 4 to 5° C. The plastic container was then stored in a refrigerator for 7 days at 4 to 5° C. […]

Data set [2] relates to bovine embryos. Put plainly: in vitro culture test of low-quality bovine embryos after 7 days of non-freezing preservation (survival, hatching). The format is cell-based, Japanese Black Cattle and Holstein Cattle. The settings on record: for Hatched embryos (%) / Survival rate (%) / Hatched embryos: number / Survival rate: number of surviving embryos: medium 199, low temperature 7 days; for Hatched embryos: number / Survival rate: number of surviving embryos: out of N; for Number of hatched embryos (%) / Number of live embryos (%) / Number of hatched embryos / Number of live embryos: medium 199, 7 days non-frozen. The procedure:
(§1) Embryos collected from donor bovine animals of Japanese Black Cattle and Holstein Cattle after superovulation were evaluated for their qualities according to the regulation by International Embryo Transfer Society (IETS manual. Manual of the international embryo transfer society. In: Stringfellow D A, Seidel S M, editors. Savoy, Ill., USA: IETS 1998). Low-quality embryos were subjected to an in vitro culture test after 7 days of non-freezing preservation, and high-quality embryos were subjected to investigation of the conception rate after implantation to recipient cattle.
(§2) Preservation of bovine embryos was carried out as follows (FIG. 1). First, a preservative solution alone was sucked into a straw having a capacity of 0.25 ml, and, after introduction of an air layer, a bovine embryo contained in the preservative solution was sucked. Thereafter, an air layer was introduced, and the preservative solution alone was sucked again. The straw was then sealed. Subsequently, the straw containing the sucked bovine embryo was immersed in water contained in a plastic container (plastic tube) which had been preliminarily cooled to 4 to 5° C. The plastic container was then stored in a refrigerator for 7 days at 4 to 5° C.
(§3) After the non-freezing preservation, the bovine embryo was washed 3 times by immersion in PBS(+) containing 5% (v/v) fetal bovine serum (FBS). The washed bovine embryo was cultured under 5% CO2 at 38° C. in CR1aa medium containing 5% (v/v) FBS for 48 hours. Morphological observation was carried out under a stereoscopic microscope, and the embryo was judged to be alive if the progress of cleavage by the culture could be found and the cytoplasmic membrane was not disrupted. Live cells were checked for whether hatching from the zona pellucida could be observed or not. A bovine embryo washed with PBS(+) containing 5% (v/v) FBS was nonsurgically implanted into the deep part of the corpus-luteum-side uterine horn of each recipient cattle on Day 6 to 8 of an estrous cycle (the date of estrus was defined as Day 0). On Days 30 and 60 of the estrous cycle, pregnancy diagnosis was carried out. For a significance test to verify the effect of the embryo preservation solution according to the present invention, a χ^2 test was used.
(§4) To medium 199 (Invitrogen) supplemented with antibiotics (penicillin G potassium and streptomycin sulfate), FBS was added to 20 to 50% (v/v), and HEPES was also added to a concentration of 0 to 100 mM. In the conception test, a group in which a special peptide having a protection effect against low temperature (mature Nfel1, SEQ ID NO:2) was added was also provided. In addition, in order to investigate the effects of other Good's buffers other than HEPES, preservation solutions were prepared by adding FBS and a Good's buffer (PIPES or MOPS) to medium 199 such that the concentration of FBS was 50% (v/v) and the concentration of the Good's buffer was 25 mM. These preservation solutions were sterilized by filtration through a filter having a pore size of 0.2 μm, and stored in a refrigerator until use.
Using medium 199 to which a Good's buffer was added at 25 mM (FBS concentration, 50% (v/v) FBS), bovine embryos were preserved at low temperature for 7 days, and the survival rate and the hatching rate were investigated by the method described above. […] In Table 3, “pH” indicates the pH of the medium upon completion of the refrigerated storage for 7 days.

For data set [3], the system named is bovine embryos. In words: conception test: implantation of high-quality bovine embryos preserved 7 days in the non-frozen state into recipient cattle. The format is in vivo. The settings on record: 7 days non-frozen, medium 199, 50% (v/v) FBS, 25 mM HEPES. As for the experimental part: as §1, §2, §3, §4
Subsequently, the conception ability of high-quality bovine embryos that had been preserved in the non-frozen state for 7 days was investigated. Since the concentration of HEPES generally recommended for use in cell culture is 10 to 25 mM (Luo S et al., Effect of HEPES buffer on the uptake and transport of P-glycoprotein substrates and large neutral amino acids. Mol Pharm 2010; 7:412-420), the concentration of HEPES in the non-freezing preservative solution used in the present test for investigation of the conception ability was set to 25 mM. The special recombinant peptide having a protection effect against low temperature (mature Nfel1 peptide) was added to medium 199 containing 50% (v/v) FBS supplemented with 25 mM HEPES, to see whether the peptide improves the conception ability or not.

[4] abbreviates: Good's buffer 25 mM, FBS 50% (v/v).
Where [5] appears, read: 25 mM tris (pH adjusted to 7.2 with hydrochloric acid), medium 199, 50% (v/v) FBS, 7 days.
Setting [6] is: 12.5 mM HEPES, 20% FBS, 35 tested embryos.
[7] abbreviates: 12.5 mM HEPES, 50% FBS, 35 tested embryos.
[8] abbreviates: 25 mM HEPES, 20% FBS, 36 tested embryos.
Setting [9] is: 25 mM HEPES, 50% FBS, 36 tested embryos.
Where [10] appears, read: 50 mM HEPES, 20% FBS, 30 tested embryos.
The mark [11] stands for this setting: 50 mM HEPES, 50% FBS, 30 tested embryos.
The mark [12] stands for this setting: 100 mM HEPES, 50% FBS, 20 tested embryos.

Consider `O=S(=O)(O)CCCN1CCN(CCO)CC1` [EPPS, 3-[4-(2-Hydroxyethyl)-1-piperazinyl]propanesulfonic acid], for which the “pH of the medium upon completion of the refrigerated storage for 7 days” value (“pH of the medium upon completion … for 7 days” for short) in data set [1] amounted to 7.3. Also, in the data set on bovine embryos [2] (setting [4]), the “Hatched embryos (%)” value is reported as 10.0%, the “Survival rate (%)” value was 35.0%, the “Hatched embryos: number” value is reported as 2 and the “Survival rate: number of surviving embryos” value (“Survival rate: number” below) is reported as 7.
For the compound `O=S(=O)(O)CCNC(CO)(CO)CO` [TES, N-Tris(hydroxymethyl)methyl-2-aminoethanesulfonic acid], the “pH of the medium upon completion … for 7 days” value in data set [1] was determined as 7.2. Moreover, in the data set with bovine embryos [2] (setting [4]), the “Hatched embryos (%)” value turned out to be 15.0%, the “Survival rate (%)” value turned out to be 30.0%, the “Hatched embryos: number” value is 3 and the “Survival rate: number” value came to 6.
Take “tris(hydroxymethyl)aminomethane [reference compound]”: the “pH after the low-temperature preservation” value in data set [1] (25 mM tris, medium 199, 50% (v/v) FBS, 7 days) was 7.2. For the same compound, in the data set with bovine embryos [2] (setting [5]), the “hatching rate after the preservation” value came to 5.0% and the “survival rate after the preservation” value came out at 10.0%.
Take `O=S(=O)(O)CCCN1CCOCC1` [MOPS, 3-Morpholinopropanesulfonic acid]: the “pH of the medium upon completion … for 7 days” value in data set [1] is on record as 7.0. In addition, in the data set with bovine embryos [2] (setting [4]), the “Hatched embryos (%)” value turned out to be 25.0%, the “Survival rate (%)” value was 45.0%, the “Hatched embryos: number” value came out at 5 and the “Survival rate: number” value stood at 9.
Consider `O=S(=O)(O)CCN1CCN(CCS(=O)(=O)O)CC1` [PIPES, Piperazine-1,4-bis(2-ethanesulfonic acid)], for which the “pH of the medium upon completion … for 7 days” value in data set [1] was determined as 7.0. In the data set on bovine embryos [2] (setting [4]), the “Hatched embryos (%)” value was found to be 25.0%, the “Survival rate (%)” value was found to be 40.0%, the “Hatched embryos: number” value was determined as 5 and the “Survival rate: number” value stood at 8.
On to `O=S(=O)(O)CCN1CCN(CCO)CC1` [HEPES, 4-(2-hydroxyethyl)-1-piperazineethanesulfonic acid], for which the “pH upon completion of preservation” value worked out at 7.4 in data set [1] (12.5 mM HEPES, 20% FBS); 7.4 in data set [1] (12.5 mM HEPES, 50% FBS); 7.3 in data set [1] (25 mM HEPES, 20% FBS); 7.0 in data set [1] (25 mM HEPES, 50% FBS); 6.9 in data set [1] (50 mM HEPES, 20% FBS); 6.8 in data set [1] (50 mM HEPES, 50% FBS). For the same compound, the “pH upon completion of preservation” value in data set [1] (100 mM HEPES, 50% FBS) was 6.9. Also, the “pH of the medium upon completion … for 7 days” value in data set [1] turned out to be 7.0. In data set [1] (HEPES-containing solutions of Table 1), the “pH of the non-freezing preservative solution containing HEPES upon completion of the preservation” value was in the range of 6.9 to 7.4. Besides, the “Number of hatched embryos (%)” value in the data set with bovine embryos [2] (12.5 mM HEPES, 20% FBS) turned out to be 8.6%; with bovine embryos [2] (12.5 mM HEPES, 50% FBS), 25.7%; with bovine embryos [2] (25 mM HEPES, 20% FBS), 25.0%; in the data set on bovine embryos [2] (25 mM HEPES, 50% FBS) it was 36.1%; with bovine embryos [2] (50 mM HEPES, 20% FBS), 26.7%; in the data set on bovine embryos [2] (50 mM HEPES, 50% FBS), 33.3%. The “Number of hatched embryos (%)” value in the data set on bovine embryos [2] (100 mM HEPES, 50% FBS) was determined as 20.0%. In addition, the “Number of live embryos (%)” value in the data set on bovine embryos [2] (12.5 mM HEPES, 20% FBS) was determined as 25.7%; with bovine embryos [2] (12.5 mM HEPES, 50% FBS), 54.3%; in the data set with bovine embryos [2] (25 mM HEPES, 20% FBS) it was 63.9%; in the data set with bovine embryos [2] (25 mM HEPES, 50% FBS), 69.4%; with bovine embryos [2] (50 mM HEPES, 20% FBS), 63.3%; with bovine embryos [2] (50 mM HEPES, 50% FBS), 73.3%. In addition, in the data set with bovine embryos [2] (100 mM HEPES, 50% FBS), the “Number of live embryos (%)” value is recorded as 65.0%. For the same compound, the “Number of hatched embryos” value with bovine embryos [2] (setting [6]) came out at 3; with bovine embryos [2] (setting [7]) it was 9; in the data set with bovine embryos [2] (setting [8]) it was 9; in the data set on bovine embryos [2] (setting [9]) it was 13; with bovine embryos [2] (setting [10]) it was 8; in the data set on bovine embryos [2] (setting [11]), 10. Besides, the “Number of hatched embryos” value with bovine embryos [2] (setting [12]) is reported as 4. Besides, the “Number of live embryos” value in the data set with bovine embryos [2] (setting [6]) is recorded as 9; in the data set on bovine embryos [2] (setting [7]), 19; in the data set with bovine embryos [2] (setting [8]) it was 23; with bovine embryos [2] (setting [9]), 25; in the data set on bovine embryos [2] (setting [10]) it was 19; in the data set with bovine embryos [2] (setting [11]), 22. In the data set on bovine embryos [2] (setting [12]), the “Number of live embryos” value turned out to be 13. In addition, the “effect to protect embryos during non-freezing low-temperature preservation, compared among Good's buffers” value with bovine embryos [2] (Good's buffer 25 mM, FBS 50% (v/v), medium 199, 7 days) was “highest effect”. In the data set with bovine embryos [2] (setting [4]), the “Hatched embryos (%)” value came to 36.1%. Besides, the “Survival rate (%)” value in the data set with bovine embryos [2] (setting [4]) stood at 69.4%. In addition, the “Hatched embryos: number” value in the data set on bovine embryos [2] (setting [4]) is reported as 13. Besides, the “Survival rate: number” value with bovine embryos [2] (setting [4]) amounted to 25. Besides, the “survival rate after preservation for 7 days compared to the HEPES-free group” value with bovine embryos [2] (HEPES 12.5 to 100 mM, low-quality bovine embryos) was “higher survival rate”. The “rate of hatching from the zona pellucida” value with bovine embryos [2] (HEPES 25 to 50 mM, FBS 50% (v/v)) was “especially high”. In addition, the conception rate in the data set on bovine embryos [3] (high-quality bovine embryos) was determined as 75.0%. For the same compound, the “Conceptus number on Day 30 (%)” value in the data set on bovine embryos [3] came to 75.0%. In addition, the “Conceptus number on Day 60 (%)” value in the data set with bovine embryos [3] came out at 75.0%. Besides, in the data set with bovine embryos [3], the birth of calves entry is “birth of normal calves could be observed”. Moreover, the “death of early embryos between Day 30 and Day 60 of pregnancy” value in the data set with bovine embryos [3] was “not found”. Besides, in the data set on bovine embryos [3] (16 implanted embryos), the “Conceptus number on Day 30” value was found to be 12. For the same compound, the “Conceptus number on Day 60” value in the data set with bovine embryos [3] (16 implanted embryos) is listed as 12.
